Key:
LINGO2 = target: T1, LINGO2 (Homo sapiens, UniProt Q7L985); test: BRET assay of LINGO2 dimerization in HEK-293 cells; type: cell-based; details: HEK-293 coexpressing LINGO2-YFP and LINGO2-Rluc; 0.1–10 μM peptide, 20 min incubation; coelenterazine 5 μM; n = 4
T1 construct: expressed in transfected cells; host or cells: HEK-293, transient transfection by the calcium phosphate method
T1 sequence (Q7L985 28-606) 1: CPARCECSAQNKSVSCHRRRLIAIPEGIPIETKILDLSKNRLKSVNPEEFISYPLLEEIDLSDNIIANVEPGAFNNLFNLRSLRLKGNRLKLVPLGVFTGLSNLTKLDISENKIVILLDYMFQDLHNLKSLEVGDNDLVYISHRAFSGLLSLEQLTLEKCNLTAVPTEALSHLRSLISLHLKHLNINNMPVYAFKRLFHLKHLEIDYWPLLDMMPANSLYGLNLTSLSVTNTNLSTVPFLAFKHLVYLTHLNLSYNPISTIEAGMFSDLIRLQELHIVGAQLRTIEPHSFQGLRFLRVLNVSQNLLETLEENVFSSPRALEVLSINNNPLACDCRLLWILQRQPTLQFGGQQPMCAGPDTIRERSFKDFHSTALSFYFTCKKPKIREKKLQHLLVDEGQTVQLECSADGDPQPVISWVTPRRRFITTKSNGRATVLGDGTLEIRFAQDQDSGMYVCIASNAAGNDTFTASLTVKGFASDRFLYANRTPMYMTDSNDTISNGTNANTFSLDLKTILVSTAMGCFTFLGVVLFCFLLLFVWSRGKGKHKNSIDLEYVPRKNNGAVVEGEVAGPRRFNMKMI
T1 sequence (Q7L985 28-606) 2: T1 sequence (Q7L985 28-606) 1
Source text: LINGO2 has also been put forward as a potential TFF3 receptor.[38] We thus evaluated whether TFF3(C^57Acm) or TFF3 homodimer could disturb LINGO2 dimerization via a bioluminescence resonance energy transfer (BRET) assay. This method allows the study of protein interactions using energy transfer between a light-emitting enzyme and a fluorescent acceptor protein.[65] LINGO2 fused with Renilla luciferase (Rluc; protein donor) or yellow fluorescent protein (YFP; protein acceptor) were co-expressed in HEK-293 cells and BRET signal detected after adding the luminescent substrate coelenterazine. […] We then evaluated whether the TFF3 constructs could promote changes of this basal BRET signal by inducing conformational change within the dimers and/or change the dimerization state of LINGO2.
HEK-293 cells were cultured with 10% FBS at 37 °C and 5% CO2 in DMEM for 72–96 h. […] Then, total luminescence was measured by following coelenterazine addition (final concentration 5 μM). BRET signal was measured in four repeats and calculated by determining the emission ratio at 530/480 nm on cells coexpressing donor and acceptor and by subtracting the emission background BRET signal ratio (530/480 nm) of cells expressing only donor protein, then multiplying by 1,000 to obtain results in millBRET units (mBU).

human erythrocytes = test: Hemolysis analysis; type: cell-based; details: 1 h, 37 °C, absorbance 405 nm, 0.2–25 μM final concentration, two independent experiments
Source text: Considering the therapeutic potential of TFF3, it was important to determine any cytotoxic and hemolytic effects early on to avoid problems in later stages of drug development. We therefore assessed cytotoxicity on HEK-293 cells and hemolytic effects in human erythrocytes. We treated the cells with TFF3(C^57Acm) and TFF3 homodimer and used resazurin, a blue dye that produces strong fluorescence when reduced by living cells, as the readout of the number of viable cells.[60] In the hemolytic assay, we evaluated hemoglobin release, an indicator of erythrocyte lysis, upon exposure to the peptides.
Monomeric and homodimeric TFF3 were serially diluted twofold in 0.9% NaCl and seeded (25 μL) in a 384-well polypropylene plate (0.2–25 μM final concentration). […] The cells were counted using a Neubauer hemocytometer and then diluted to 1 × 10^8/mL in 0.9% NaCl. […] Following incubation, the plates were centrifuged at 1000g for 10 min to pellet cells and debris and then 25 μL of the supernatant was transferred into a 384-well flat-bottom PS plate and absorbance (Abs) was read at 405 nm using a Tecan M1000 Pro monochromator plate reader. Percent hemolysis was calculated using the following equation: Hemolysis (%) = (Abssample – Absnegative/Abspositive – Absnegative) × 100. […]

CC[C@H](C)[C@@H]1NC(=O)[C@H](CCCNC(=N)N)NC(=O)[C@H](CO)NC(=O)[C@H](CC(=O)O)NC(=O)[C@H](Cc2ccccc2)NC(=O)[C@@H]2CSSC[C@H](NC(=O)[C@H](CCC(N)=O)NC(=O)[C@H](CC(N)=O)NC(=O)[C@H](C)NC(=O)[C@H](CO)NC(=O)[C@H](CC(C)C)NC(=O)CNC(=O)[C@@H](NC(=O)[C@H](Cc3ccc(O)cc3)NC(=O)[C@H](CCC(=O)O)NC(=O)[C@@H](N)CCC(=O)O)C(C)C)C(=O)N[C@@H](C)C(=O)N[C@@H](C(C)C)C(=O)N3CCC[C@H]3C(=O)N[C@@H](C)C(=O)N[C@@H](CCCCN)C(=O)N[C@@H](CC(=O)O)C(=O)N[C@@H](CCCNC(=N)N)C(=O)N[C@@H](C(C)C)C(=O)N[C@@H](CC(=O)O)C(=O)N[C@H]3CSSC[C@H](NC(=O)CNC(=O)[C@H](CCCNC(=N)N)NC(=O)[C@H](CC(N)=O)NC(=O)[C@H](CC(N)=O)NC(=O)[C@H](CSSC[C@@H](C(=O)N[C@@H](Cc4ccccc4)C(=O)N[C@@H](CCCCN)C(=O)N4CCC[C@H]4C(=O)N[C@@H](CC(C)C)C(=O)N[C@@H](CCC(N)=O)C(=O)N[C@@H](CCC(=O)O)C(=O)N[C@@H](C)C(=O)N[C@@H](CCC(=O)O)C(=O)N[C@@H](CSCNC(C)=O)C(=O)N[C@H](C(=O)N[C@@H](Cc4ccccc4)C(=O)O)[C@@H](C)O)NC(=O)[C@H](Cc4c[nH]c5ccccc45)NC(=O)[C@@H]4CCCN4C(=O)[C@H](C(C)C)NC(=O)CNC(=O)[C@@H]4CCCN4C1=O)NC(=O)[C@H](CCC(=O)O)NC(=O)[C@H](CCCCN)NC(=O)[C@@H]1CCCN1C(=O)[C@H]([C@@H](C)O)NC(=O)[C@H](C(C)C)NC(=O)[C@H](Cc1c[nH]cn1)NC(=O)[C@@H]1CCCN1C(=O)[C@H](Cc1ccc(O)cc1)NC(=O)CNC3=O)C(=O)N2 [TFF3(C^57Acm)]
modification of LINGO2 BRET signal (LINGO2): no statistically significant (p > 0.05) modification of BRET signal | concentration up to which no hemolytic effect was displayed (human erythrocytes): > 25 µM
